Test results taken from US11708344B2, “Flavone derivatives for the treatment and prophylaxis of hepatitis B virus disease” (Hoffmann-La Roche Inc., priority 2018, dated 2023).

Assays:
[1] = system: HBeAg (surrogate marker for cccDNA) in HepDES19 cells; assay: Engineered HepDES19 primary screen assay (HBeAg ELISA); assay type: cell-based, HBV; conditions: Hepatitis B virus, HepDES19, 120 h, read-out: IC50 (HBeAg level, HepDES19 primary screen assay), HepDES19 cells, 5 days compound incubation, HBeAg ELISA
Outline: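 IC50 values come from 4-parameter logistic fits of HBeAg ELISA signal, the cccDNA surrogate, with CCK-8 run in parallel for viability. Compounds at half-log dilutions with 1% DMSO were applied for 5 days at 37 °C to HepDES19 cells previously cultured 8 days without Tet.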

[2] = Human microsome stability assay; assay type: in vitro ADME; conditions: human liver microsomes, 1 μM test compound, 0.5 mg/mL microsomal protein, 37° C., pH 7.4, 0-30 minutes
Outline: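 Parent compound remaining was measured by LC-MS/MS at 0, 3, 6, 9, 15 and 30 min, following ACN quench. Reactions held 1 μM compound and 0.5 mg/mL human liver microsomal protein in pH 7.4 phosphate buffer at 37 °C, started by NADPH regeneration (1 mM NADP, 1 mM MgCl2); controls lacked NADPH.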

Row | Compound | IC50 [1] | Clearance of Human microsome [2]
1 | O=c1cc(-c2c(F)cc(Br)cc2OCCO[C@H]2C[C@@H](C(=O)O)C2)oc2c(Cl)cccc12 [Example C071, Cis-3-[2-[5-bromo-2-(8-chloro-4-oxo-chromen-2-yl)-3-fluoro-phenoxy]ethoxy]cyclobutanecarboxylic acid] | 10.8 µM | 6.15 mL/min/kg
2 | Cc1ccc(-c2cc(=O)c3cccc(Cl)c3o2)c(OCC(=O)N2CCC[C@@H]2C(=O)NS(C)(=O)=O)c1 [Example A094, (2R)-1-[2-[2-(8-chloro-4-oxo-chromen-2-yl)-5-methyl-phenoxy]acetyl]-N-methylsulfonyl-pyrrolidine-2-carboxamide] | 0.858 µM | 6.15 mL/min/kg
3 | COc1cc(-c2cc(=O)c3cccc(Cl)c3o2)c(O[C@H]2C[C@H](C(=O)NS(C)(=O)=O)C2)cc1Br [Example B053-B, Trans-3-[5-bromo-2-(8-chloro-4-oxo-chromen-2-yl)-4-methoxy-phenoxy]-N-methylsulfonyl-cyclobutanecarboxamide] | 0.912 µM | 6.15 mL/min/kg
4 | COc1cc(Cl)c2oc(-c3ccc(C(F)(F)F)cc3OCCC(=O)O)cc(=O)c2c1 [Example A033, 3-[2-(8-chloro-6-methoxy-4-oxo-chromen-2-yl)-5-(trifluoromethyl)phenoxy]propanoic acid] | 0.479 µM | 6.15 mL/min/kg
5 | Cc1cc(F)c(-c2cc(=O)c3cccc(Cl)c3o2)c(OCCC(=O)O)c1 [Example A021, 3-[2-(8-chloro-4-oxo-chromen-2-yl)-3-fluoro-5-methyl-phenoxy]propanoic acid] | 4.04 µM | 6.15 mL/min/kg
6 | Cc1cc(-c2cc(=O)c3cccc(Br)c3o2)c(OCCCOCC(=O)O)cc1Cl [Example C018, 2-[3-[2-(8-bromo-4-oxo-chromen-2-yl)-5-chloro-4-methyl-phenoxy]propoxy]acetic acid] | 4.82 µM | 6.74 mL/min/kg
7 | O=c1cc(-c2ccccc2OCCO[C@H]2C[C@@H](C(=O)O)C2)oc2c(Cl)ccc(C(F)(F)F)c12 [Example C094, cis-3-[2-[2-[8-chloro-4-oxo-5-(trifluoromethyl)chromen-2-yl]phenoxy]ethoxy]cyclobutanecarboxylic acid] | 0.04 µM | 6.15 mL/min/kg
8 | O=C(O)COCCCOc1cc(Cl)ccc1-c1cc(=O)c2cccc(Cl)c2o1 [Example C009, 2-[3-[5-chloro-2-(8-chloro-4-oxo-chromen-2-yl)phenoxy]propoxy]acetic acid] | 2.66 µM | 6.15 mL/min/kg
9 | O=c1cc(-c2ccc(F)cc2OCCO[C@H]2C[C@H](C(=O)O)C2)oc2c(Cl)cc(F)cc12 [Example C045-B, Trans-3-[2-[2-(8-chloro-6-fluoro-4-oxo-chromen-2-yl)-5-fluoro-phenoxy]ethoxy]cyclobutanecarboxylic acid] | 2.88 µM | 9.43 mL/min/kg
10 | Cc1cc(OCCO[C@H]2C[C@@H](C(=O)O)C2)c(-c2cc(=O)c3cccc(Cl)c3o2)cc1C(F)F [Example C075, Cis-3-[2-[2-(8-chloro-4-oxo-chromen-2-yl)-4-(difluoromethyl)-5-methyl-phenoxy]ethoxy]cyclobutanecarboxylic acid] | 10.9 µM | 6.15 mL/min/kg
11 | Cc1cc(-c2cc(=O)c3cccc(Cl)c3o2)c(OCC(=O)N2CC[C@H](O)C2)cc1Br [Example A088, 2-[4-bromo-2-[2-[(3S)-3-hydroxypyrrolidin-1-yl]-2-oxo-ethoxy]-5-methyl-phenyl]-8-chloro-chromen-4-one] | 1.11 µM | 7.09 mL/min/kg
12 | CC(CCOCC(=O)O)Oc1cc(C(F)(F)F)ccc1-c1cc(=O)c2cccc(Cl)c2o1 (stereo not drawn) [Example C024, 2-[3-[2-(8-chloro-4-oxo-chromen-2-yl)-5-(trifluoromethyl)phenoxy]butoxy]acetic acid] | 0.909 µM | 6.15 mL/min/kg
13 | COc1cc(-c2cc(=O)c3cccc(Cl)c3o2)c(OCCC(=O)O)cc1C [Example A015, 3-[2-(8-chloro-4-oxo-chromen-2-yl)-4-methoxy-5-methyl-phenoxy]propanoic acid] | 11.1 µM | 6.15 mL/min/kg
14 | CCOc1ccc(-c2cc(=O)c3cccc(Cl)c3o2)c(OCCO[C@H]2C[C@@H](C(=O)O)C2)c1 [Example C035-A, Cis-3-[2-[2-(8-chloro-4-oxo-chromen-2-yl)-5-ethoxy-phenoxy]ethoxy]cyclobutanecarboxylic acid] | 12.5 µM | 8.64 mL/min/kg
15 | Cc1ccc(OCCO[C@H]2C[C@@H](C(=O)O)C2)c(-c2cc(=O)c3cccc(Cl)c3o2)c1 [Example C050-A, Cis-3-[2-[2-(8-chloro-4-oxo-chromen-2-yl)-4-methyl-phenoxy]ethoxy]cyclobutanecarboxylic acid] | 15.6 µM | 6.15 mL/min/kg
16 | O=c1cc(-c2cc(Cl)c(Br)cc2OCCO[C@H]2C[C@@H](C(=O)O)C2)oc2c(Cl)cccc12 [Example C057-A, Cis-3-[2-[5-bromo-4-chloro-2-(8-chloro-4-oxo-chromen-2-yl)phenoxy]ethoxy]cyclobutanecarboxylic acid] | 5.01 µM | 8.0 mL/min/kg
17 | CC(C)c1ccc(-c2cc(=O)c3cccc(Cl)c3o2)c(O[C@H]2C[C@H](C(=O)O)C2)c1 [Example B020-B, Trans-3-[2-(8-chloro-4-oxo-chromen-2-yl)-5-isopropyl-phenoxy]cyclobutanecarboxylic acid] | 9.44 µM | 8.46 mL/min/kg
18 | COc1cc(O[C@H]2C[C@@H](C(=O)NS(C)(=O)=O)C2)c(-c2cc(=O)c3cccc(Cl)c3o2)cc1C [Example B050-A, Cis-3-[2-(8-chloro-4-oxo-chromen-2-yl)-5-methoxy-4-methyl-phenoxy]-N-methylsulfonyl-cyclobutanecarboxamide] | 7.03 µM | 6.15 mL/min/kg
19 | COc1cc(OCCO[C@H]2C[C@@H](C(=O)O)C2)c(-c2cc(=O)c3cccc(Cl)c3o2)cc1OC(F)(F)F [Example C089, Cis-3-[2-[2-(8-chloro-4-oxo-chromen-2-yl)-5-methoxy-4-(trifluoromethoxy)phenoxy]ethoxy]cyclobutanecarboxylic acid] | 3.78 µM | 6.15 mL/min/kg
20 | Cc1ccc(-c2cc(=O)c3cccc(Cl)c3o2)c(OCC(=O)N2CCC[C@H]2C(=O)O)c1 [Example A078, (2S)-1-[2-[2-(8-chloro-4-oxo-chromen-2-yl)-5-methyl-phenoxy]acetyl]pyrrolidine-2-carboxylic acid] | 10.2 µM | 6.15 mL/min/kg
21 | COc1cc(-c2cc(=O)c3cccc(Cl)c3o2)c(O[C@H]2C[C@@H](C(=O)NS(C)(=O)=O)C2)cc1Br [Example B053-A, Cis-3-[5-bromo-2-(8-chloro-4-oxo-chromen-2-yl)-4-methoxy-phenoxy]-N-methylsulfonyl-cyclobutanecarboxamide] | 3.36 µM | 6.15 mL/min/kg
22 | CCOc1ccc(OCCO[C@H]2C[C@H](C(=O)O)C2)c(-c2cc(=O)c3cccc(Cl)c3o2)c1 [Example C051-B, Trans-3-[2-[2-(8-chloro-4-oxo-chromen-2-yl)-4-ethoxy-phenoxy]ethoxy]cyclobutanecarboxylic acid] | 9.41 µM | 7.85 mL/min/kg
23 | O=C(O)[C@@H]1CCN(C(=O)COCCOc2cc(Br)ccc2-c2cc(=O)c3cccc(Cl)c3o2)C1 [Example C111, (3R)-1-[2-[2-[5-bromo-2-(8-chloro-4-oxo-chromen-2-yl)phenoxy]ethoxy]acetyl]pyrrolidine-3-carboxylic acid] | 1.25 µM | 6.15 mL/min/kg
24 | O=C(O)[C@@H]1CCCN1C(=O)CCOc1cc(Br)ccc1-c1cc(=O)c2cccc(Cl)c2o1 [Example A076, (2S)-1-[3-[5-bromo-2-(8-chloro-4-oxo-chromen-2-yl)phenoxy]propanoyl]pyrrolidine-2-carboxylic acid] | 14.1 µM | 6.15 mL/min/kg
